Results from ChEMBL document CHEMBL5346873, “Strategic modification of low-activity natural antimicrobial peptides confers antibacterial potential in vitro and in vivo” (Eur J Med Chem, 2023).

Assays:
[1] = tested on: Staphylococcus haemolyticus; experiment: Bactericidal activity against Staphylococcus haemolyticus incubated overnight; type: functional
[2] = tested on: Salmonella typhimurium; experiment: Antibacterial activity against Salmonella typhimurium incubated for 16 to 20 hrs; type: functional, Salmonella enterica subsp. enterica serovar Typhimurium; details: time 16-20 hrs
[3] = tested on: Candida tropicalis; experiment: Fungicidal activity against Candida tropicalis incubated overnight; type: functional
[4] = tested on: Salmonella enterica; experiment: Antibacterial activity against Salmonella enterica incubated for 16 to 20 hrs; type: functional; details: time 16-20 hrs
[5] = tested on: Streptococcus iniae; experiment: Bactericidal activity against Streptococcus iniae incubated overnight; type: functional
[6] = tested on: Enterococcus faecalis; experiment: Antibacterial activity against Enterococcus faecalis incubated for 16 to 20 hrs; type: functional; details: time 16-20 hrs
[7] = tested on: Vibrio vulnificus; experiment: Antibacterial activity against Vibrio vulnificus V1 incubated for 16 to 20 hrs; type: functional; details: time 16-20 hrs
[8] = tested on: Salmonella enterica; experiment: Bactericidal activity against Salmonella enterica incubated overnight; type: functional
[9] = tested on: Staphylococcus haemolyticus; experiment: Antibacterial activity against Staphylococcus haemolyticus incubated for 16 to 20 hrs; type: functional; details: time 16-20 hrs
[10] = tested on: Streptococcus agalactiae; experiment: Bactericidal activity against Streptococcus agalactiae incubated overnight; type: functional
[11] = tested on: Klebsiella pneumoniae; experiment: Bactericidal activity against NDM Klebsiella pneumoniae incubated overnight; type: functional
[12] = tested on: Candida tropicalis; experiment: Antifungal activity against Candida tropicalis incubated for 16 to 20 hrs; type: functional; details: time 16-20 hrs
[13] = tested on: Klebsiella aerogenes; experiment: Bactericidal activity against Enterobacter aerogenes incubated overnight; type: functional
[14] = tested on: Vibrio vulnificus; experiment: Antibacterial activity against Vibrio vulnificus V2 incubated for 16 to 20 hrs; type: functional; details: time 16-20 hrs
[15] = tested on: Vibrio vulnificus; experiment: Antibacterial activity against Vibrio vulnificus V3 incubated for 16 to 20 hrs; type: functional; details: time 16-20 hrs
[16] = tested on: Aeromonas hydrophila; experiment: Antibacterial activity against Aeromonas hydrophila incubated for 16 to 20 hrs; type: functional; details: time 16-20 hrs
[17] = tested on: Pseudomonas aeruginosa; experiment: Antibacterial activity against Pseudomonas aeruginosa incubated for 16 to 20 hrs; type: functional; details: time 16-20 hrs
[18] = tested on: Edwardsiella tarda; experiment: Bactericidal activity against Edwardsiella tarda incubated overnight; type: functional
[19] = tested on: Vibrio vulnificus; experiment: Bactericidal activity against Vibrio vulnificus 204 incubated overnight; type: functional
[20] = tested on: Vibrio vulnificus; experiment: Antibacterial activity against Vibrio vulnificus 204 incubated for 16 to 20 hrs; type: functional; details: time 16-20 hrs
[21] = tested on: Enterococcus faecalis; experiment: Bactericidal activity against Enterococcus faecalis incubated overnight; type: functional
[22] = tested on: Vibrio anguillarum; experiment: Antibacterial activity against Listonella anguillarum incubated for 16 to 20 hrs; type: functional; details: time 16-20 hrs
[23] = tested on: Klebsiella oxytoca; experiment: Bactericidal activity against Klebsiella oxytoca incubated overnight; type: functional
[24] = tested on: Salmonella typhimurium; experiment: Bactericidal activity against Salmonella typhimurium incubated overnight; type: functional, Salmonella enterica subsp. enterica serovar Typhimurium
[25] = tested on: Vibrio vulnificus; experiment: Bactericidal activity against Vibrio vulnificus V3 incubated overnight; type: functional
[26] = tested on: Pseudomonas aeruginosa; experiment: Bactericidal activity against Pseudomonas aeruginosa incubated overnight; type: functional
[27] = tested on: Klebsiella pneumoniae; experiment: Antibacterial activity against NDM Klebsiella pneumoniae incubated for 16 to 20 hrs; type: functional; details: time 16-20 hrs
[28] = tested on: Vibrio alginolyticus; experiment: Antibacterial activity against Vibrio alginolyticus incubated for 16 to 20 hrs; type: functional; details: time 16-20 hrs
[29] = tested on: Escherichia coli; experiment: Antibacterial activity against Escherichia coli incubated for 16 to 20 hrs; type: functional; details: time 16-20 hrs
[30] = tested on: Edwardsiella tarda; experiment: Antibacterial activity against Edwardsiella tarda incubated for 16 to 20 hrs; type: functional; details: time 16-20 hrs
[31] = tested on: Aeromonas hydrophila; experiment: Bactericidal activity against Aeromonas hydrophila incubated overnight; type: functional
[32] = tested on: Nakaseomyces glabratus; experiment: Fungicidal activity against Candida glabrata incubated overnight; type: functional
[33] = tested on: Vibrio harveyi; experiment: Bactericidal activity against Vibrio harveyi incubated overnight; type: functional
[34] = tested on: Enterococcus faecium; experiment: Bactericidal activity against Enterococcus faecium incubated overnight; type: functional
[35] = tested on: Escherichia coli; experiment: Bactericidal activity against Escherichia coli incubated overnight; type: functional
[36] = tested on: Nakaseomyces glabratus; experiment: Antifungal activity against Candida glabrata incubated for 16 to 20 hrs; type: functional; details: time 16-20 hrs
[37] = tested on: Klebsiella oxytoca; experiment: Antibacterial activity against Klebsiella oxytoca incubated for 16 to 20 hrs; type: functional; details: time 16-20 hrs
[38] = tested on: Streptococcus iniae; experiment: Antibacterial activity against Streptococcus iniae incubated for 16 to 20 hrs; type: functional; details: time 16-20 hrs
[39] = tested on: Vibrio anguillarum; experiment: Bactericidal activity against Listonella anguillarum incubated overnight; type: functional
[40] = tested on: Vibrio vulnificus; experiment: Bactericidal activity against Vibrio vulnificus V1 incubated overnight; type: functional
[41] = tested on: Vibrio harveyi; experiment: Antibacterial activity against Vibrio harveyi incubated for 16 to 20 hrs; type: functional; details: time 16-20 hrs
[42] = tested on: Vibrio alginolyticus; experiment: Bactericidal activity against Vibrio alginolyticus incubated overnight; type: functional
[43] = tested on: Vibrio vulnificus; experiment: Bactericidal activity against Vibrio vulnificus V2 incubated overnight; type: functional
[44] = tested on: Streptococcus agalactiae; experiment: Antibacterial activity against Streptococcus agalactiae incubated for 16 to 20 hrs; type: functional; details: time 16-20 hrs
[45] = tested on: Enterococcus faecium; experiment: Antibacterial activity against Enterococcus faecium incubated for 16 to 20 hrs; type: functional; details: time 16-20 hrs
[46] = tested on: Klebsiella aerogenes; experiment: Antibacterial activity against Enterobacter aerogenes incubated for 16 to 20 hrs; type: functional; details: time 16-20 hrs
[47] = tested on: Acinetobacter baumannii; experiment: Bactericidal activity against Acinetobacter baumannii incubated for overnight; type: functional
[48] = tested on: Staphylococcus aureus; experiment: Bactericidal activity against Staphylococcus aureus incubated for overnight; type: functional
[49] = Hemolytic activity in human RBC at 100 ug/ml incubated for 1 hr; type: toxicity, cell-based, Erythrocyte; details: human red blood cells (erythrocytes), at 100 µg/mL, read-out: Activity
[50] = tested on: Vibrio vulnificus; experiment: Antibacterial activity against Vibrio vulnificus 204 assessed as induction of resistance development by measuring fold increase in MIC measured after 15 passages; type: functional
[51] = Salmonella enterica subsp. enterica serovar Typhimurium

CC1(C)S[C@@H]2[C@H](NC(=O)[C@H](N)c3ccccc3)C(=O)N2[C@H]1C(=O)O [AMPICILLIN]
3.12 µg/mL: MIC [4] | MBC [18] | MIC [29] | MIC [30]
> 100 µg/mL: MIC ([2]; Salmonella enterica) | MFC [3] | MBC [11] | MIC [12] | MIC [16] | MIC [17] | MBC [19] | MIC [20] | MBC [21] | MIC [22] | MBC [23] | MBC ([24]; Salmonella enterica) | MBC [26] | MIC [27] | MIC [28] | MBC [31] | MFC [32] | MBC [33] | MIC [36] | MIC [37] | MBC [39] | MIC [41] | MBC [42]
100 µg/mL: MIC [6] | MBC [13]
< 1.56 µg/mL: MBC [1] | MIC [9] | MBC [10] | MBC [34] | MIC [44] | MIC [45]
50 µg/mL: MIC [7] | MIC [14] | MIC [15] | MBC [25] | MBC [40] | MBC [43] | MIC [46]
6.25 µg/mL: MBC [5] | MBC [8] | MBC [35] | MIC [38]

H-GKCIAKAIFKGAKKLLKKLVNP-OH
25.8%: hemolysis at 1 h, 100 ug/ml [49]
3.12 µg/mL: MBC [47]
100 µg/mL: MBC [48]

COLISTIN
3.12 µg/mL: MBC [1] | MIC [9] | MIC [28] | MBC [42]
50 µg/mL: MIC [7] | MBC [10] | MIC [14] | MIC [15] | MBC [21] | MBC [25] | MBC [40] | MBC [43] | MIC [44]
< 1.56 µg/mL: MIC [2, 51] | MIC [4] | MIC [6] | MBC [8] | MBC [11] | MBC [13] | MIC [17] | MIC [22] | MBC [24, 51] | MBC [26] | MIC [27] | MIC [29] | MBC [35] | MIC [46]
12.5 µg/mL: MFC [3] | MIC [12] | MBC [23] | MIC [37] | MIC [38]
100 µg/mL: MIC [16]
6.25 µg/mL: MBC [18] | MIC [30] | MBC [39]
25 µg/mL: MBC [5] | MIC [20]
16: fold change (FC) [50]
> 100 µg/mL: MBC [19] | MBC [31] | MFC [32] | MBC [33] | MBC [34] | MIC [36] | MIC [41] | MIC [45]

H-GKCIAKAIFKGAKKFLKKLVNP-OH
> 100 µg/mL: MBC [48]
3.12 µg/mL: MBC [47]
16.7%: hemolysis at 1 h, 100 ug/ml [49]

H-FKDKSVLKIVKIFVDIYF-OH
> 100 µg/mL: MBC [47] | MBC [48]
16.3%: hemolysis at 1 h, 100 ug/ml [49]

H-KKCIAKAILKKAKDLLDDLVNP-OH
0%: hemolysis at 1 h, 100 ug/ml [49]
50 µg/mL: MBC [47]
> 100 µg/mL: MBC [48]
